Reference: ChEMBL document CHEMBL3102739, “Synthesis and antiproliferative activity of conformationally restricted 1,2,3-triazole analogues of combretastatins in the sea urchin embryo model and against human cancer cell lines” (Bioorg Med Chem, 2014)

What was measured:
[1] = system: HCT-15; assay: Growth inhibition of human HCT15 cells after 48 hrs by SRB assay; format: functional; settings: HCT-15, 48 h
[2] = system: SF-268; assay: Growth inhibition of human SF268 cells after 48 hrs by SRB assay; format: functional; settings: SF-268, 48 h
[3] = system: DU-145; assay: Growth inhibition of human DU145 cells after 48 hrs by SRB assay; format: functional; settings: DU-145, 48 h
[4] = system: Paracentrotus lividus; assay: Antimitotic activity against sea urchin embryo free-swimming blastula model assessed as embryo spinning compound treated at 8 to 10 hrs post-fertilization measured after 0.25 to 20 hrs; format: functional, Blastula stage
[5] = Growth inhibition of human OVCAR4 cells after 48 hrs by SRB assay; format: functional; settings: OVCAR-4, 48 h
[6] = Growth inhibition of human UACC257 cells after 48 hrs by SRB assay; format: functional; settings: UACC-257, 48 h
[7] = system: KM12; assay: Growth inhibition of human KM12 cells after 48 hrs by SRB assay; format: functional; settings: KM12, 48 h
[8] = system: MCF7; assay: Growth inhibition of human MCF7 cells after 48 hrs by SRB assay; format: functional; settings: MCF7, 48 h
[9] = system: HCT-116; assay: Growth inhibition of human HCT116 cells after 48 hrs by SRB assay; format: functional; settings: HCT-116, 48 h
[10] = Growth inhibition of human NCI-ADR-RES cells after 48 hrs by SRB assay; format: functional
[11] = system: SW-620; assay: Growth inhibition of human SW620 cells after 48 hrs by SRB assay; format: functional; settings: SW-620, 48 h
[12] = system: IGROV-1; assay: Growth inhibition of human IGROV1 cells after 48 hrs by SRB assay; format: functional; settings: IGROV-1, 48 h
[13] = system: BT-549; assay: Growth inhibition of human BT549 cells after 48 hrs by SRB assay; format: functional; settings: BT-549, 48 h
[14] = Growth inhibition of human RXF393 cells after 48 hrs by SRB assay; format: functional; settings: RXF 393, 48 h
[15] = system: SK-MEL-28; assay: Growth inhibition of human SK-MEL-28 cells after 48 hrs by SRB assay; format: functional; settings: SK-MEL-28, 48 h
[16] = system: Malme-3M; assay: Growth inhibition of human MALME-3M cells after 48 hrs by SRB assay; format: functional

Compound | GI50 [1] | GI50 [2] | GI50 [3] | EC [4] | GI50 [5] | GI50 [6] | GI50 [7] | GI50 [8] | GI50 [9] | GI50 [10] | GI50 [11] | GI50 [12] | GI50 [13] | GI50 [14] | GI50 [15] | GI50 [16]
COc1ccc(-c2nn[nH]c2-c2cc(OC)c(OC)c(OC)c2)cc1 | < 10 nM | 21 nM | < 10 nM | 0.1 µM | < 10 nM | < 10 nM | < 10 nM | < 10 nM | < 10 nM | < 10 nM | < 10 nM | < 10 nM | < 10 nM | < 10 nM | – | –
COc1ccc(-c2nn[nH]c2-c2cc(OC)c3c(c2OC)OCO3)cc1 | 454 nM | 4020 nM | 1420 nM | >5 µM | 4680 nM | 595 nM | 412 nM | 352 nM | 353 nM | 296 nM | 385 nM | 720 nM | 345 nM | 657 nM | 1780 nM | 766 nM
